Values of other authors as cited in patent US20080311054A1, “Compositions and Methods to Counteract Oral Malodour” (GIVAUDAN SA, priority 2005, published 2008).

Tested on: microorganisms such as yeasts
Conditions: WO 99/51093

CCCCCCCCO [octanol]
effect (killing microorganisms such as yeasts): no effect
